Measured values: publication PMC11493442, “Sensory-Motor Neuropathy in Mfn2 T105M Knock-in Mice and Its Reversal by a Novel Piperine-Derived Mitofusin Activator” (The Journal of Pharmacology and Experimental Therapeutics, 2024)
Read-outs that look alike come from different tables or passages of the source.

Experiments:
[1] = design: method as in earlier work; settings: ref Piyachaturawat et al., 1983, Bhardwaj et al., 2002, Lee et al., 2005, McNamara et al.; cited from earlier work
mitofusins = system: mitofusins; design: method as in Zhang et al., 2022; settings: ref Zhang et al., 2022; cited from earlier work
[2] = Enterohepatic recirculation study: oral PK without and with activated charcoal; format: in vivo, mouse; settings: mice; for AUC(0-t) / half-life: mouse, plasma, po, 5 mg/kg; for half-life: read-out: Plasma t1/2 (converted)
Experimental: Enterohepatic recirculation (EHR) of 8015-P2 was tested by fasting mice overnight prior to administration of the compound (5 mg/kg) by oral gavage. 1 hour later, activated charcoal (2 g/kg) was administered by oral gavage to half of the mice; all mice were fed 2 hours after 8015-P2 dosing to induce gall bladder emptying. […] Areas under the concentration curves were calculated from the raw data; plasma half-times were estimated by linear regression of the second, slower elimination phase.

Mfn2 null MEF cells = test: Mitochondrial elongation (fusogenicity, mitochondrial aspect ratio) in Mfn2 null MEFs; format: cell-based, mouse
Experimental: Mitochondrial polarization based on tetramethyl rhodamine ester fluorescence and fusogenicity based on an increase in mitochondrial aspect ratio were measured in static confocal images of live cells using methods that we have extensively validated ([Franco et al., 2016], [2020]; [Rocha et al., 2018]; [Zhang et al., 2022]). As necessary, red, green, and blue brightness, or rarely contrast, were adjusted in individual confocal images prior to merging to enhance clarity. All adjustments were performed across the entire image.
Mitochondrial elongation was assessed in Mfn2 null MEF cells after treatment with compounds at concentrations ranging from 0.5 nM–10 μM in DMSO for 14 h. Mitochondria were stained with MitoTracker Orange, and nuclei were costained with Hoechst before confocal microscope imaging; at least three independent experiments were performed. Mitochondrial aspect ratio (length/width) of at least 10 cells was measured for each experiment using National Institutes of Health ImageJ. […] Concentration-response curves were generated using a sigmoidal model in Prism 8 software. EC50 and Emax values and their variances were calculated from interpolated data of all replicate experiments in a series.

[3] = system: Mfn2 T105M KI DRG neurons; test: Mitochondrial motility in DRG neurons from Mfn2 T105M KI mice; format: cell-based, mouse; settings: 100 nM for 48 hours
Experimental: DRG neurons were isolated from ∼8-week-old Mfn2 T105M motor neuron transgenic mice, Mfn2 T105M KI mice, or Mfn1 fl/fl/Mfn2 fl/fl mice and cultured as described ([Dang et al., 2023]).
(§1) Mitochondrial motility in neuronal processes of cultured reprogrammed human motor neurons ([Abernathy et al., 2017]; [Dang et al., 2023]), mouse DRG neurons transduced with adeno-Mito-DS-Red2, or axons of ex vivo mouse sciatic nerves stained with tetramethyl rhodamine ester was measured using time-lapse confocal microscopy on a Nikon Eclipse Ti2 confocal microscope as described ([Franco et al., 2016], [2020]; [Rocha et al., 2018]). Mouse DRG neurons and reprogrammed human CMT2A motor neurons were transduced with adeno-Mito-DS-Red2 to visualize mitochondria; ex vivo sciatic nerve mitochondria were labeled with tetramethyl rhodamine ester (200 nM for 30 minutes at 37° C). Time-lapse imaging was carried out using confocal microscopy on a Nikon Eclipse Ti2 confocal microscope with 1 frame captured every 5 seconds for 180 frames (15 minutes). Kymographs and quantitative data were generated using the ImageJ plug-in: Velocity_Measurement_Tool.

[4] = system: Mfn2 T105M KI mouse sciatic nerve axons; test: Ex vivo mitochondrial motility in sciatic nerve axons after oral dosing; settings: 100 mg/kg by oral gavage
Experimental: as §1

Plasma PK in rats = format: in vivo, rat; settings: oral administration
Experimental: Routine in vitro pharmacokinetic (PK) profiling of 8015 and its enantiomers (8015-P1 and 8015-P2) was performed at WuXi Apptec Co., Ltd. (Shanghai, China) using standard methods as described ([Dang et al., 2020], [2021]). In vivo PK profiling was performed by Frontage Laboratories (Exton PA, USA). The vehicle used for intravenous and oral PK studies was 12% sulfobutylether-β-cyclodextrin (SBE-β-CD; CyDex Pharmaceutical Inc., Lenexa KS, USA) in sterile water.

Mfn2 T105M knock-in mice = test: CMT2A phenotype reversal in Mfn2 T105M knock-in mice; format: in vivo, mouse
Experimental: The creation of mice with human CMT2A mutations MFN2 T105M and M376V CRISPR-engineered into the mouse Mfn2 gene has been reported, as was absence of a cardiac phenotype ([Franco et al., 2023]). Neuromuscular phenotyping was performed for the current studies (vide infra). Results of male and female mice were combined as there were no observed sex differences.
Mfn2 T105M knock-in mice underwent evaluation at 10-week intervals to establish basal phenotype progression. 8015 or 8015-P2 treatment studies were performed after final baseline evaluations at 50 weeks of age. 8015 (transgenic MFN2 T105M model) or 8015-P2 (Mfn2 T105M knock-in model) were administered at doses of 50 mg/kg by oral gave once daily in the morning. Repeat phenotyping was performed after 4 and 8 weeks of treatment (transgenic model) or 6 weeks of treatment (knock-in model), after which the mice were killed by anesthesia overdose and tissue specimens obtained for histologic and ultrastructural studies, as described ([Franco et al., 2020]).
Rotarod studies were performed on mice initially familiarized and trained on the Rotarod (Ugo Basile, Gemonio, VA, Italy;# 47650) at a speed of 5 rpm. For evaluation, the initial speed of 5 rpm accelerated to 40 rpm over 120 seconds and then maintained 40 rpm for a maximum of 180 seconds. For each trial, five tests were performed with at least 5 minutes rest between each test. No trends were observed from test 1 to test 5. In total, three trials were performed over sequential days to account for variabilities of the Rotarod test and between days. For each mouse, the latency (time to falling off) of replicate tests for each trial day were averaged, and results of the three independent trials were averaged to obtain a result for that condition (i.e., age, genotype, and/or drug treatment).
Neuroelectrophysiologic recordings of hindlimb compound muscle action potentials (CMAP) were performed with a Viasys Healthcare Nicolet Biomedical instrument (Middleton, WI, USA Cat:# OL060954) using Viking Quest version 11.2 software. Nerve stimulation used 3.9 mV pulses of 0.002 milliseconds duration administered through a needle electrode placed at the proximal sciatic nerve through a posterior lumbar approach. Muscle depolarization was monitored using a loop electrode placed around the mid distal hindlimb, corresponding to the greatest girth of the tibialis and gastrocnemius muscles.
An inverted grid suspension test was used to assess grip strength and coordination. Mice were placed on a grid, which was slowly inverted no higher than three feet above a padded surface; the time to falling off (latency) was recorded up to a maximum of 500 seconds. Each mouse underwent at least three independent studies on different days, and the longest latency time was used ([Aartsma-Rus and van Putten, 2014]). Obese mice (>150% of mean weight for that condition) were preemptively excluded.
Mechanical sensitivity was measured using the von Frey test ([Martinov et al., 2013]). Mice were placed in a plexiglass chamber with a mesh grid floor and allowed to accommodate for at least 20 minutes or until exploratory behavior had ceased. The response to mechanical stimulation of hind paws used IITC Supertips filaments and an electronic von Frey anesthesiometer (IITC Life Science, Inc. Woodland Hills CA, USA). Filaments were applied to the footpads with a gradual increase in pressure until paw withdrawal was evoked; the maximum applied force was recorded. Paws of the left and right foot were alternately measured, with at least six measurements taken per animal and the results averaged for each mouse.
Confocal imaging of gastrocnemius myocyte cross-sectional area (wheat germ agglutinin staining) and synapse density (α-bungarotoxin staining) was performed as described ([Franco et al., 2020]). […]

[5] = p.o. 50 mg/kg, ref Dang et al., cited from earlier work
[6] = ref Dang et al., cited from earlier work
[7] = ref Dang et al., 2021 (cpd 5b); cited from earlier work
[8] = 5 mg/kg oral, with vs. without charcoal
[9] = 5 mg/kg oral, activated charcoal by gavage 1 hour after dosing
[10] = 50 mg/kg once daily by oral gavage for 6 weeks

O=C(/C=C/C=C/c1ccc2c(c1)OCO2)N1CCCCC1 [piperine]
Cytotoxicity [1]: can be cytotoxic at higher concentrations
Mitofusin activation potency (in words) (mitofusins): approximately the same potency as phenylhexanamide compounds

O=C(NC1CC1CCCc1ccccc1)[C@H]1CC[C@H](O)CC1 (stereo partly shown) [Cpd 10]
Mitofusin activator activity (mitofusins): functionally inactive

O=C(NC1CC1CCCCc1ccccc1)C1CCC(O)CC1 (stereo not shown) [Compound 8015-P2]
Decrease of AUClast by charcoal [2, 8]: 17%
Decrease of t1/2 by charcoal [2, 8]: 36%
Enterohepatic recirculation ([2]; oral): undergoes enterohepatic recirculation
AUC(0-t) [2, 9]: 739 ng·h/mL
half-life [2, 9]: 1.21 h
AUC(0-t) ([2]; 5 mg/kg oral, without charcoal): 887 ng·h/mL
half-life ([2]; 5 mg/kg oral, without charcoal): 1.88 h
Mitofusin activator potency (in words) (Mfn2 null MEF cells): subnanomolar potency
Comparative fusogenic potency of the two 8015 isomers (Mfn2 null MEF cells; Mfn2-deficient mitochondria, n = 4 each): markedly more potent and effective than 8015-P1
EC50 (Mfn2 null MEF cells; Mus musculus, MEF, 95% confidence limits 439 - 863PM, n = 4, read-out: EC50 as a fusogenic factor (fusion of Mfn2-deficient mitochondria)): 623 pM
Fold greater fusogenic potency versus comparators (Mfn2 null MEF cells; versus trans-MiM111 or CPR1-B / previously described mitofusin activators): ~10 fold
Mitochondrial motility in DRG neuronal processes [3]: corrected
Mitochondrial motility in sciatic nerve axons, ex vivo [4]: corrected mitochondrial dysmotility
Waxing and waning of plasma levels (Plasma PK in rats): not observed
Motor neuron functional metrics (Rotarod latency, inverted grasp) (Mfn2 T105M knock-in mice; [10]): normalized
Neuroelectrophysiological abnormality (CMAP amplitude) (Mfn2 T105M knock-in mice; [10]): normalized
Sensory neuron metric (von Frey foot pad mechanical sensitivity) (Mfn2 T105M knock-in mice; [10]): normalized
Gastrocnemius myocyte cross-sectional area (Mfn2 T105M knock-in mice; 6 weeks of administration): reversed
Neuromuscular synapse density (Mfn2 T105M knock-in mice; 6 weeks of administration): reversed
Proportion of tibialis nerve neurons with small axonal areas (lowest quartile) (Mfn2 T105M knock-in mice; 6 weeks of administration): reversed

O=C(CCCCCc1ccccc1)N[C@H]1CC[C@H](O)CC1 [trans-MiM111, N-(trans-4-hydroxycyclohexyl)-6-phenylhexanamide]
Bioavailability ([5]; 2020 (cpd 13b)): 61%
calc logP ([6]; 2020 (cpd 13b)): 3.22

O=C(N[C@H]1CC[C@H](O)CC1)C1CC1CCCc1ccccc1 (stereo partly drawn) [CPR1-B, N-(trans-4-hydroxycyclohexyl)-2-(3-phenylpropyl)cyclopropane-1-carboxamide]
Aqueous solubility (pH 7.4) [7]: <10 uM
Bioavailability ([5]; 2021 (cpd 5b)): 59%
calc logP ([6]; 2021 (cpd 5b)): 3.09
